Data on one sequence can be found in patent US20090275503A1, “DIASTEREOMERIC PEPTIDES FOR MODULATING T CELL IMMUNITY” (Yeda Research and Developent Co., Ltd. at the Weizman …, priority 2005, published 2009).

Non-standard residues stand in square brackets, D forms with d. No end group written: not given here.

For data set [1], the system named is Lewis rats. As to the kind of experiment: Delayed type hypersensitivity to PPD in AA rats (Part A). Type of data set: in vivo, rat. The note with it: 16 days after AA induction, ear thickness 48 hr after PPD. The method, then:
Twenty μl of PPD (0.5 mg/ml in PBS) were injected intradermally into the pinna of the right ear of each rat on day 16 after AA induction; 20 μl of sterile PBS were injected in the left ear as control. The thickness of the ear was measured 48 hr later using a vernier caliper and expressed as the difference between the right and the left ear (Quintana et al., 2005).

For data set [2], the system named is rat TCR. Put plainly: Co-immunoprecipitation of fluorescence-labeled peptides with TCR molecules. The format is binding. The conditions noted are these: Rho-labeled peptides, activated A2b T cells. The protocol: Activated A2b T cells (2×10^6) were cultured for 1 hr at 37° C. in the presence of CP or 2D-CP (25 μg/ml), or 2G-CP, and lysed for 15 min on ice in 0.1 ml lysis buffer (Adachi et al., 1996). Insoluble material was removed by centrifugation at 10.000 g for 10 min at 4° C. The lysate was then incubated overnight with Protein A-plus Agarose beads (Santa Cruz Biotechnology Inc., Santa Cruz, Calif., USA) bound to antibodies to the rat TCR or MHC class 1. The antibodies reactive against the rat TCR (clone R73) or HSP60 (clone LKI) were purified from the respective hybridomas at our lab; antibodies to rat CD28, actin and the rat MHC class 1 were purchased from Serotec (Oxford, UK). After an overnight incubation at 4° C., the beads were washed with lysis buffer, boiled for 10 minutes and the protein supernatant run in a 4-20% SDS-PAGE. The presence of co-immunoprecipitated peptide was detected by the Typhoon 9400 variable mode imager.
Next, co-immunoprecipitation experiments were performed. The affinity of the TCR/CP, the TCR/2D-CP and TCR/2G-CP interactions were compared by performing a series of co-precipitation experiments using different concentrations of Rho-labeled CP, 2D-CP and 2G-CP peptides.

Data set [3] concerns BALB/c mice. Put plainly: Delayed type hypersensitivity to oxazalone in mice. The format is in vivo, mouse. The method, then: Groups of 5 female inbred BALB/c mice (The Jackson Laboratory) were sensitized on the shaved abdominal skin with 100 μl of 2% Oxazalone dissolved in acetone/olive oil [4:1 (vol/vol)] applied topically. DTH sensitivity was elicited 5 days later by challenging the mice with 20 μl of 0.5% Oxazalone in acetone/olive oil, 10 μl administered topically to each side of the ear. A constant area of the ear was measured immediately before challenge and 24 h after challenge with a Mitutoyo engineer's micrometer. The individual measuring ear swelling was unaware of the identity of the groups of mice. The DTH reaction is presented as the increment of ear swelling after challenge expressed as the mean±SEM in units of 10-2 mm. One hour after the challenge the mice's ears were treated topically with either all-L CP or with 2D-CP, both dissolved in 40 μl DMSO. The activity of the peptide treatments was compared to treatment with DMSO alone for “untreated mice” and Dexamethasone (100 μg/ml in saline) as a positive control.
To test whether TCR trans-membrane peptides could inhibit the elicitation of existing DTH reactivity, groups of naïve BALB/c mice were sensitized to 2% oxazalone. Five days later, the mice were challenged with 0.5% oxazalone administered to the ear. An hour after the challenge, the mice were treated with Dimethylsulfoxide (DMSO), all-L CP 150 μg (6 mg/kg) in DMSO, 2D-CP 150 μg (6 mg/kg) in DMSO, or dexamethasone, applied topically. On the following day, ear thickness was measured the swelling of DMSO treated mice (0.33±0.01 mm) was compared to that of mice treated with all-L CP (0.30±0.01 mm), 2D-CP (0.27±0.01 mm) and Dexamethasone (0.15±0.02 mm). […] Thus, 2D-CP can inhibit a T-cell mediated immune reaction in subjects already sensitized to the antigen.

The subject of data set [4] is LNC from Mt primed rats. Put plainly: T-cell proliferation of LNC from Mt-immunized rats activated with PPD or Mt176-90 (Part A). Type of data set: cell-based, rat.
For data set [5], the system named is target cells. Put plainly: Cytotoxic effect on the target cells (Part A). The conditions noted are these: incubated with the target cells.
Data set [6] deals with Lewis rats. As to the kind of experiment: Adjuvant arthritis (AA) in Lewis rats (Part A). Type of data set: in vivo, rat. The method, then:
To test the effect of CP on T-cell activation in vivo, the experimental T-cell mediated autoimmune disease adjuvant arthritis (AA) was used. AA was induced by injecting 50 μl of Mt suspended in IFA (10 mg/ml) at the base of the tail. At the time of AA induction, each rat also received 100 μg of all-L CP, 2D-CP or 2G CP control peptide (or PBS) dissolved in 50 μl of IFA and mixed with Mt/IFA used to induce AA. The day of AA induction was designated as day 0. Disease severity was assessed by direct observation of all 4 limbs in each animal. A relative score between 0 and 4 was assigned to each limb, based on the degree of joint inflammation, redness and deformity; thus the maximum possible score for an individual animal was 16 (Quintana et al., 2002). The mean AA score (±SEM) is shown for each experimental group. Arthritis was also quantified by measuring hind limb diameter with a caliper. Measurements were taken on the day of the induction of AA and 26 days later (at the peak of AA); the results are presented as the mean±SEM of the difference between the two values for all the animals in each group. The person who scored the disease was blinded to the identity of the groups.
Next, the contribution of the secondary structure and the side-chains to the inhibitory effects of CP on T cell activation In vivo was analyzed, using the experimental autoimmune disease Adjuvant Arthritis (AA). Immunization of Lewis rats with Mt triggers AA, an autoimmune disease driven by Mt-specific T cells that cross-react with self-antigen (Holoshitz et al., 1984; Holoshitz et al., 1983). PPD and Mt176-90 are targeted by the arthritogenic T-cell response (Anderton et al., 1994); indeed immunomodulatory therapies that inhibit the progression of arthritis have been associated with a decreased T cell response to PPD and Mt176-90 and with a diminished delayed type hypersensitivity (DTH) response to PPD (van Eden et al., 1985).

In the case of “GLRILLLKV [2D-CP] (GL[dR]ILLL[dK]V-NH2; also: rhodamine label, position not given here) [CP diastereomer]”, the “Reduction in the DTH response to PPD” value in data set [1] is recorded as 51%. Besides, the “Co-precipitation with the TCR” value in data set [2] is “can be co-precipitated with the TCR”. For the same sequence, in data set [3] (150 μg (6 mg/kg) topical in DMSO), the “Reduction in ear swelling compared with all-L CP” value was “twice the reduction”. Also, the Ear swelling in data set [3] (topical treatment 1 hr after oxazalone challenge, peptides 150 μg (6 mg/kg) in DMSO, measured following day) turned out to be 0.27±0.01 mm. In data set [4] (LNC, 72 hr, 3H-thymidine incorporation), the “Inhibition of T-cell proliferation to PPD and to Mt176-90” value was “inhibited T-cell proliferation to PPD and to Mt176-90 in a dose-dependent manner”. In data set [4] (at lower concentrations, p<0.02 (FIG. 3B)), the “Inhibition of T-cell proliferation compared with all-L CP” value is “somewhat greater”. Further, the Cytotoxic effect entry in data set [5] was “None of the peptides (all-L CP, 2D-CP or 2G CP) had a cytotoxic effect”. For the same sequence, the “Mean maximum AA score” value in data set [6] (100 μg peptide per rat at AA induction, maximum possible score 16) is given as 6.6±0.7. In addition, in data set [6] (100 μg peptide per rat with Mt at the time of AA induction), the “Effect on adjuvant arthritis (clinical score and paw swelling)” value was “significantly milder arthritis”. For the same sequence, the “Further decrease in the AA score” value in data set [6] (dose increased to 900 μg per rat) is 25%. Further, the “Improvement in paw swelling” value in data set [6] (dose increased to 900 μg per rat, day 26) is given as 50%.
